{"source": "paper PMC11845477", "about": "“Exploring the principles behind antibiotics with limited resistance” (Nature Communications, 2025)", "key": {"[1]": {"tested_on": "K. pneumoniae ATCC 10031 (SEN) and K. pneumoniae ATCC 700603 (MDR)", "test": "Frequency-of-resistance (FoR) assay, relative MIC of mutants", "assay_type": "cell-based, Klebsiella pneumoniae", "procedure,_shortened": "(§1)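 Spontaneous resistant mutants selected on antibiotic agar (≈10^10 cells, 48 h, 37 °C); MICs of ten picked colonies measured by 18 h broth microdilution (OD600 < 0.05 = inhibition) and expressed as MICevolved/MICancestor.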"}, "[2]": {"tested_on": "A. baumannii ATCC 17978 (SEN) and A. baumannii ATCC BAA-1605 (MDR)", "test": "Frequency-of-resistance (FoR) assay, relative MIC of mutants", "assay_type": "cell-based, Acinetobacter baumannii", "procedure,_shortened": "as §1"}, "[3]": {"tested_on": "E. coli ATCC 25922 (SEN) and E. coli NCTC13846 (MDR)", "test": "Adaptive laboratory evolution (ALE), relative MIC of evolved lines", "assay_type": "cell-based, Escherichia coli", "conditions": "for Relative MIC (log10): EC-MDR (Escherichia coli NCTC 13846)", "procedure,_shortened": "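Ten parallel populations per antibiotic–ancestor pair were evolved in MHB at 37 °C, starting near 50% growth-inhibiting drug. Every 72 h they were passaged into 0.5–2.5× increasing concentrations, keeping the highest-drug well with OD600 > 0.2.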"}}, "note": "Where a SMILES comes first, the peptide text is derived from it. Bridges are numbered along the chain shown (N, C = ends). [ ]: non-standard residue; d: D form. The star is where a group is joined. X1 = NC[C@@H](CC(=O)*)c1cccc(Cl)c1; Dab = NCC[C@H](N)C(=O)O; Dap = NC[C@H](N)C(=O)O", "data": [{"smiles": "CC(C)C[C@@H]1NC(=O)[C@@H](Cc2ccccc2)NC(=O)[C@H](CCN)NC(=O)[C@@H](NC(=O)[C@H](CN)NC(=O)[C@@H](NC(=O)C[C@H](CN)c2cccc(Cl)c2)[C@@H](C)O)CCNC(=O)[C@H]([C@@H](C)O)NC(=O)[C@H](CCN)NC(=O)[C@H](CCN)NC1=O", "note": "[SPR206] (X1-T[Dap][Dab][Dab][dF]L[Dab][Dab]T; lactam 3-C (inferred); N-terminus assumed)", "values": [{"measurement": "Relative MIC", "setting": "[1]; FoR assay, Klebsiella pneumoniae ATCC 10031 (KP-SEN), evolved line 1", "value": 64}, {"measurement": "Relative MIC", "setting": "[1]; FoR assay, Klebsiella pneumoniae ATCC 10031 (KP-SEN), evolved line 2", "value": 1}, {"measurement": "Relative MIC", "setting": "[1]; FoR assay, Klebsiella pneumoniae ATCC 10031 (KP-SEN), evolved line 3", "value": 256}, {"measurement": "Relative MIC", "setting": "[1]; FoR assay, Klebsiella pneumoniae ATCC 700603 (KP-MDR), evolved line 1", "value": 64}, {"measurement": "Relative MIC", "setting": "[1]; FoR assay, Klebsiella pneumoniae ATCC 700603 (KP-MDR), evolved line 2", "value": 64}, {"measurement": "Relative MIC", "setting": "[1]; FoR assay, Klebsiella pneumoniae ATCC 700603 (KP-MDR), evolved line 3", "value": 64}, {"measurement": "MIC of evolved line", "setting": "[1]; Klebsiella pneumoniae ATCC 10031 (KP-SEN), evolved line 1", "value": 32, "unit": "µg/mL"}, {"measurement": "MIC of evolved line", "setting": "[1]; Klebsiella pneumoniae ATCC 10031 (KP-SEN), evolved line 2", "value": 0.25, "unit": "µg/mL"}, {"measurement": "MIC of evolved line", "setting": "[1]; Klebsiella pneumoniae ATCC 10031 (KP-SEN), evolved line 3", "value": 128, "unit": "µg/mL"}, {"measurement": "Relative MIC", "setting": "[1]; Klebsiella pneumoniae ATCC 10031 (KP-SEN), evolved line 1 versus ancestor", "value": 64}, {"measurement": "Relative MIC", "setting": "[1]; Klebsiella pneumoniae ATCC 10031 (KP-SEN), evolved line 2 versus ancestor", "value": 1}, {"measurement": "Relative MIC", "setting": "[1]; Klebsiella pneumoniae ATCC 10031 (KP-SEN), evolved line 3 versus ancestor", "value": 256}, {"measurement": "MIC of evolved line", "setting": "[1]; Klebsiella pneumoniae ATCC 700603 (KP-MDR), evolved line 1", "value": 32, "unit": "µg/mL"}, {"measurement": "MIC of evolved line", "setting": "[1]; Klebsiella pneumoniae ATCC 700603 (KP-MDR), evolved line 2", "value": 32, "unit": "µg/mL"}, {"measurement": "MIC of evolved line", "setting": "[1]; Klebsiella pneumoniae ATCC 700603 (KP-MDR), evolved line 3", "value": 32, "unit": "µg/mL"}, {"measurement": "Relative MIC", "setting": "[1]; Klebsiella pneumoniae ATCC 700603 (KP-MDR), evolved line 1 versus ancestor", "value": 64}, {"measurement": "Relative MIC", "setting": "[1]; Klebsiella pneumoniae ATCC 700603 (KP-MDR), evolved line 2 versus ancestor", "value": 64}, {"measurement": "Relative MIC", "setting": "[1]; Klebsiella pneumoniae ATCC 700603 (KP-MDR), evolved line 3 versus ancestor", "value": 64}, {"measurement": "MIC of evolved line", "setting": "[2]; Acinetobacter baumannii ATCC 17978 (AB-SEN), evolved line 1", "value": 0.125, "unit": "µg/mL"}, {"measurement": "MIC of evolved line", "setting": "[2]; Acinetobacter baumannii ATCC 17978 (AB-SEN), evolved line 2", "value": 0.125, "unit": "µg/mL"}, {"measurement": "MIC of evolved line", "setting": "[2]; Acinetobacter baumannii ATCC 17978 (AB-SEN), evolved line 3", "value": 0.125, "unit": "µg/mL"}, {"measurement": "Relative MIC", "setting": "[2]; Acinetobacter baumannii ATCC 17978 (AB-SEN), evolved line 1 versus ancestor", "value": 1}, {"measurement": "Relative MIC", "setting": "[2]; Acinetobacter baumannii ATCC 17978 (AB-SEN), evolved line 2 versus ancestor", "value": 1}, {"measurement": "Relative MIC", "setting": "[2]; Acinetobacter baumannii ATCC 17978 (AB-SEN), evolved line 3 versus ancestor", "value": 1}, {"measurement": "MIC of evolved line", "setting": "[2]; Acinetobacter baumannii ATCC BAA 1605 (AB-MDR), evolved line 2", "value": 0.25, "unit": "µg/mL"}, {"measurement": "MIC of evolved line", "setting": "[2]; Acinetobacter baumannii ATCC BAA 1605 (AB-MDR), evolved line 1", "value": 0.25, "unit": "µg/mL"}, {"measurement": "Relative MIC", "setting": "[2]; Acinetobacter baumannii ATCC BAA 1605 (AB-MDR), evolved line 1 versus ancestor", "value": 2}, {"measurement": "Relative MIC", "setting": "[2]; Acinetobacter baumannii ATCC BAA 1605 (AB-MDR), evolved line 2 versus ancestor", "value": 2}, {"measurement": "MIC of evolved line", "setting": "[2]; Acinetobacter baumannii ATCC BAA 1605 (AB-MDR), evolved line 3", "value": 0.25, "unit": "µg/mL"}, {"measurement": "Relative MIC", "setting": "[2]; Acinetobacter baumannii ATCC BAA 1605 (AB-MDR), evolved line 3 versus ancestor", "value": 2}, {"measurement": "Relative MIC", "setting": "[2]; FoR assay, Acinetobacter baumannii ATCC 17978 (AB-SEN), evolved line 1", "value": 1}, {"measurement": "Relative MIC", "setting": "[2]; FoR assay, Acinetobacter baumannii ATCC 17978 (AB-SEN), evolved line 2", "value": 1}, {"measurement": "Relative MIC", "setting": "[2]; FoR assay, Acinetobacter baumannii ATCC 17978 (AB-SEN), evolved line 3", "value": 1}, {"measurement": "Relative MIC", "setting": "[2]; FoR assay, Acinetobacter baumannii ATCC BAA 1605 (AB-MDR), evolved line 1", "value": 2}, {"measurement": "Relative MIC", "setting": "[2]; FoR assay, Acinetobacter baumannii ATCC BAA 1605 (AB-MDR), evolved line 2", "value": 2}, {"measurement": "Relative MIC", "setting": "[2]; FoR assay, Acinetobacter baumannii ATCC BAA 1605 (AB-MDR), evolved line 3", "value": 2}, {"measurement": "Relative MIC", "setting": "[3]; ALE, E. coli ATCC 25922 (EC-SEN), evolved line 1", "value": 512}, {"measurement": "Relative MIC", "setting": "[3]; ALE, E. coli ATCC 25922 (EC-SEN), evolved line 2", "value": 256}, {"measurement": "Relative MIC", "setting": "[3]; ALE, E. coli ATCC 25922 (EC-SEN), evolved line 3", "value": 512}, {"measurement": "Relative MIC", "setting": "[3]; ALE, E. coli ATCC 25922 (EC-SEN), evolved line 4", "value": 256}, {"measurement": "Relative MIC", "setting": "[3]; ALE, E. coli ATCC 25922 (EC-SEN), evolved line 5", "value": 128}, {"measurement": "Relative MIC", "setting": "[3]; ALE, E. coli ATCC 25922 (EC-SEN), evolved line 6", "value": 512}, {"measurement": "Relative MIC", "setting": "[3]; ALE, E. coli ATCC 25922 (EC-SEN), evolved line 7", "value": 256}, {"measurement": "Relative MIC", "setting": "[3]; ALE, E. coli ATCC 25922 (EC-SEN), evolved line 8", "value": 128}, {"measurement": "Relative MIC", "setting": "[3]; ALE, E. coli ATCC 25922 (EC-SEN), evolved line 9", "value": 256}, {"measurement": "Relative MIC", "setting": "[3]; ALE, E. coli ATCC 25922 (EC-SEN), evolved line 10", "value": 16}, {"measurement": "Relative MIC", "setting": "[3]; ALE, E. coli NCTC 13846 (EC-MDR), evolved line 1", "value": 8}, {"measurement": "Relative MIC", "setting": "[3]; ALE, E. coli NCTC 13846 (EC-MDR), evolved line 2", "value": 16}, {"measurement": "Relative MIC", "setting": "[3]; ALE, E. coli NCTC 13846 (EC-MDR), evolved line 3", "value": 16}, {"measurement": "Relative MIC", "setting": "[3]; ALE, E. coli NCTC 13846 (EC-MDR), evolved line 4", "value": 16}, {"measurement": "Relative MIC", "setting": "[3]; ALE, E. coli NCTC 13846 (EC-MDR), evolved line 5", "value": 32}, {"measurement": "Relative MIC", "setting": "[3]; ALE, E. coli NCTC 13846 (EC-MDR), evolved line 6", "value": 8}, {"measurement": "Relative MIC", "setting": "[3]; ALE, E. coli NCTC 13846 (EC-MDR), evolved line 7", "value": 8}, {"measurement": "Relative MIC", "setting": "[3]; ALE, E. coli NCTC 13846 (EC-MDR), evolved line 8", "value": 16}, {"measurement": "Relative MIC", "setting": "[3]; ALE, E. coli NCTC 13846 (EC-MDR), evolved line 9", "value": 16}, {"measurement": "Relative MIC", "setting": "[3]; ALE, E. coli NCTC 13846 (EC-MDR), evolved line 10", "value": 32}, {"measurement": "Relative MIC (log10)", "setting": "[3]; evolved line 2", "value": 1.204, "unit": "log10"}, {"measurement": "Relative MIC (log10)", "setting": "[3]; evolved line 4", "value": 1.204, "unit": "log10"}, {"measurement": "Relative MIC (log10)", "setting": "[3]; evolved line 8", "value": 1.204, "unit": "log10"}, {"measurement": "Relative MIC (log10)", "setting": "[3]; evolved line 9", "value": 1.204, "unit": "log10"}, {"measurement": "Relative MIC (log10)", "setting": "[3]; evolved line 10", "value": 1.505, "unit": "log10"}, {"measurement": "MIC of evolved line", "setting": "[3]; EC-MDR (NCTC 13846), evolved line 1", "value": 32, "unit": "µg/mL"}, {"measurement": "Relative MIC", "setting": "[3]; EC-MDR (NCTC 13846), evolved line 1, evolved vs ancestor", "value": 8}]}]}
